Results reported in US20070275935A1, “Estratriene Derivatives” (priority 2003, published 2007).

How the values were obtained:
[1] = test system: GM-CSF production by Human Airway Smooth Muscle Cells; assay: Interleukin-1α-mediated GM-CSF production by HASM cells (ELISA); assay type: cell-based; conditions: for HASM - GM-CSF: inhibition of interleukin-1α (1 ng/ml)-mediated GM-CSF production, concentration not given, * not defined
[2] = test system: bovine aortic vascular smooth muscle; assay: bFGF-induced proliferation of bovine aortic vascular smooth muscle; assay type: cell-based; conditions: 3 μM
Description: Experiments were also carried out with bovine aortic vascular smooth muscle with a more limited set of compounds.

[3] = test system: mice (C57BL/6) sensitised to ovalbumin; assay: Airway hyperresponsiveness to methacholine in ovalbumin-sensitised mice; assay type: in vivo; conditions: ovalbumin-challenged mice; for airway reactivity to intravenous methacholine (change in respiratory resistance) (FIG. 8): 50 mg/kg/day intraperitoneally; for airway reactivity to intravenous methacholine (change in respiratory resistance) (FIG. 9): 50 mg/kg/day orally
Description: Conscious female mice (C57BL/6) of 6-8 weeks of age were sensitised by a 0.2 ml intraperitoneal injection of 50 ug ovalbumin (in 10 mg/ml aluminium hydroxide) on day 0 and 12. and subsequently challenged with an aerosol of OVA (1% w/v)/FCS (5% v/v) on days 20-28 for 30 minutes. The aerosol exposures were achieved by placing the rodents in a whole body plethysmograph apparatus and then nebulising the […] into the chamber through a port located on the top of the chamber. The aerosol exited the chamber via a bias flow into a particle trap.
Drug treatments were administered to assess the effects of drugs on the development of airway hyperresponsiveness. Drug treatment commenced the day prior (day 19) to the first exposure to OVA (day 20) and continued throughout the period during which the mice were challenged with OVA. Drug treatment comprised 4NO or 2MEO, each at 50 mg/kg administered once daily 2h before OVA exposure to either intraperitoneally or orally in a vehicle of 10% DMSO/90% peanut oil in a volume of 100 μL.
After the 26-28 day sensitisation and challenge protocol, airway obstruction in response to the bronchoconstrictor methacholine was measured. The mice were anaesthetised with a mixture of ketamine/xylazine. A tracheostomy was performed, and a catheter placed in the jugular vein to administer methacholine intravenously. The mouse was then be placed in a whole body plethysmograph and mechanically ventilated (150 breaths/min at a tidal volume of 10 ml/kg). The transpulmonary pressure was measured with a differential pressure transducer with one port attached to the interior of the plethysmograph and the other to the intratracheal cannula. The airflow rate was measured with a pneumotachograph.
The change in airways resistance in response to intravenous methacholine (1-1000 μg/kg, given 4 minutes apart) was calculated on-line with a Buxco pulmonary mechanics analyzer.
The effects of treatment of ovalbumin-challenged mice (veh-OVA) with either 2MEO or 4NO, provided intraperitoneally at 50 mg/kg/day on airway reactivity to intravenously administered methacholine are shown in FIG. 8. Data are expressed as the change in respiratory resistance from the baseline level and are presented as the mean and standard error of the mean.
OVA challenge (veh-OVA) increased the airway reactivity to methacholine compared to that detected in non-challenged mice (veh-SAL).

[4] = test system: Human airway smooth muscle (HASM) cells; assay: Thrombin-induced proliferation of human airway smooth muscle (HASM) cells, cell number after 48 h; assay type: cell-based; conditions: for Cell number (% control) Thrombin (0.3 U/ml): 30 min pre-incubation, mean ± SEM (n), without analogue 133.5 ± 4.1; for Cell number (% control) Thrombin (0.3 U/ml) / inhibition of thrombin-mediated HASM proliferation, in words (FIG. 1): 48 h; for HASM-Thr pIC50 / IC50: negative log of the concentration that reduces the thrombin-induced proliferative response by 50%, pIC50 of 4.00 = inactive; for HASM- Thr pIC25 / HASM- Thr pIC75: two site model, thrombin-induced proliferation; for HASM- Thr pIC25: first phase (inhibition up to 50%); for HASM- Thr pIC75: second phase (inhibition up to 100%); for inhibition of thrombin-mediated HASM proliferation, in words (FIG. 1): thrombin 0.3 U/ml; for IC50: Homo sapiens, read-out: HASM-Thr pIC50 (converted)
In short: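 Primary human bronchial smooth muscle cells seeded at 1.5×10^4 cells/cm², serum-starved 24 h, pre-incubated with compound 30 min, then stimulated 48 h with thrombin 0.3 U/ml. Cells counted by haemocytometer with trypan blue; pIC50 as negative log concentration halving proliferative response.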

HASM cells = assay: Shape of HASM cells in the presence of thrombin; assay type: cell-based, human; conditions: thrombin 0.3 U/mL, 48 h
Description: The effects of 2MEO and 4NOM on the shape of HASM in the presence thrombin (0.3 U/mL) was investigated. Analogues were pre-incubated with HASM for 30 min before the addition of thrombin. The incubation continued for 48 h before capturing images of the HASM.

[5] = test system: Human airway smooth muscle (HASM) cells; assay: bFGF-induced proliferation of human airway smooth muscle (HASM) cells, cell number after 48 h; assay type: cell-based; conditions: bFGF 300 pM, mean ± SEM (n), without analogue 135.8 ± 3.7
Description: Human airway smooth muscle (HASM) cells were cultured from macroscopically normal bronchi (0.5-2 cm diameter) obtained from lung resection or heart-lung transplant specimens provided by the Alfred Hospital (Melbourne) according to methods published in detail previously (Fernandes et al., 1999).
Approximately 0.1 g of smooth muscle was stripped from the wall of the bronchus for each cell culture. Dissected tissue was immersed in Dulbecco's modified Eagle's medium (DMEM) (Flow Laboratories, Scotland), supplemented with 100 U/mL penicillin G (CSL, Australia) and 100 ug/mL streptomycin (CSL, Australia). The tissue was rinsed in phosphate buffered saline (PBS; Oxoid, England) and the airway smooth muscle was chopped into 2 mm^3 pieces and digested for 2 hours in DMEM containing elastase (0.5 mg/mL: Worthington Biochemical, USA) followed by a 12 hour incubation in DMEM containing collagenase (1 mg/mL) (Worthington Biochemical, USA), at 37° C. with agitation.
The resulting cell suspension was centrifuged and washed three times in phosphate buffered saline (PBS). Following the last centrifugation step, the cells were resuspended in 25 mL of DMEM supplemented with L-glutamine (2 mM: Sigma, USA), penicillin G (100 U/mL), streptomycin (100 μg/mL), amphotericin B (2 μg/mL: Wellcome, UK) and heat-inactivated FCS (10% v/v: CSL, Australia) and seeded into 25 cm^2 culture flasks. The primary isolates were incubated for 7 to 14 days to reach confluence.
Cells were harvested weekly by 10 min exposure to trypsin (0.5%: CSL, Australia) and EDTA (1 mM in PBS: BDH, Australia) and passaged at a 1:3 ratio into 75 cm^2 flasks.
The activity of the compounds has been established in cell culture by exploring their effects on mitogen-induced increases in cell number. […]
Data are expressed as a percentage of the cell number in vehicle treated wells and are presented as the mean and standard error of the mean.

| Structure (SMILES) | HASM - GM-CSF [1] | reduction of bFGF (300 pM) induced proliferation [2] | airway reactivity to intravenous methacholine (change in respiratory resistance) (FIG. 8) [3] | airway reactivity to intravenous methacholine (change in respiratory resistance) (FIG. 9) [3] | Cell number (% control) Thrombin (0.3 U/ml) ([4]; analogue 10 μM) | HASM-Thr pIC50 [4] | HASM- Thr pIC25 [4] | HASM- Thr pIC75 [4] | effect on the shape of HASM cells (HASM cells; 10 μM) | Cell number (% control) bFGF ([5]; analogue 10 μM) | reduction of GM-CSF production, in words (FIG. 7) ([1]; interleukin-1α 1 ng/ml) | Cell number (% control) Thrombin (0.3 U/ml) ([4]; analogue 1 μM) | inhibition of thrombin-mediated HASM proliferation, in words (FIG. 1) [4] | effect on the shape of HASM cells (HASM cells; 1 μM) | Cell number (% control) bFGF ([5]; analogue 1 μM) | IC50 [4] |
| --- | --- | --- | --- | --- | --- | --- | --- | --- | --- | --- | --- | --- | --- | --- | --- | --- |
| COc1cc2c(cc1O)CC[C@@H]1[C@@H]2CC[C@]2(C)[C@@H](O)CC[C@@H]12 [2-methoxyestradiol, reference compound] | 29 ± 10* | 87±6% | able to reduce the increase in respiratory resistance | able to reduce the increase in respiratory resistance | 100.9 ± 8.1 (13) % control | 5.49 | 5.94 | 4.98 | caused extensive rounding of cells | 87.5 ± 13.8 (4) % control |  |  |  |  |  |  |
| COc1cc2c(cc1O)C(=NOCc1ccc([N+](=O)[O-])cc1)C[C@@H]1[C@@H]2CC[C@]2(C)[C@@H](O)CC[C@@H]12 [CP-DM-2-11-7, 2-methoxy-6-(4-nitrobenzyloxy)iminoestradiol] | 45 ± 8* | 75±14% | able to reduce the increase in respiratory resistance | able to reduce the increase in respiratory resistance |  | 6.90 | 8.82 | 5.66 |  |  | reduced GM-CSF production to greater extent than 2MEO | 111.1 ± 6.9 (13) % control | inhibitory activity on proliferation of HASM cells over a wide concentration range (10 nM to 10 μM) | no detectable effects on the shape of the HASM cells | 116.6 ± 6.6 (14) % control |  |
| COc1cc2c(cc1O)C(=NOCc1ccc([N+](=O)[O-])cc1)C[C@@H]1[C@@H]2CC[C@]2(C)C(=NO)CC[C@@H]12 [CP-DM-3-91, 2-methoxy-6-(4-nitrobenzyloxy)iminoestrone-17-oxime] | 43 ± 11* | 93±4% |  |  |  | 7.59 | 10.32 | 5.70 |  |  |  | 117.5 ± 8.5 (8) % control | considerably more potent than either 2MEO or 4NO |  | 111.1 ± 10.9 (4) % control |  |
| C[C@]12CC[C@@H]3c4ccc(O)cc4CC[C@H]3[C@@H]1CC/C2=N\OCc1cccc([N+](=O)[O-])c1 [CP-DM-3-102, estrone-17-(3-nitrobenzyl)oxime] |  |  |  |  |  |  | 8.03 | 5.99 |  |  |  |  |  |  |  | 0.0891 µM |
| COc1cc2c(cc1O)/C(=N/OCc1cc(F)cc(F)c1)C[C@@H]1[C@@H]2CC[C@]2(C)[C@@H](O)CC[C@@H]12 [CP-DM-4-35, 6-(3,5-difluorobenzyloxy)imino-2-methoxyestradiol] |  |  |  |  |  |  | 7.80 | 5.75 |  |  |  |  |  |  |  | 0.141 µM |
| COc1cc2c(cc1O)/C(=N/OCc1ccc(SC(F)(F)F)cc1)C[C@@H]1[C@@H]2CC[C@]2(C)[C@@H](O)CC[C@@H]12 [CP-DM-4-65, 2-methoxy-6-(4-trifluoromethylthiobenzyloxy)iminoestradiol] | 28 ± 31 |  |  |  |  |  |  |  |  |  |  |  |  |  |  | 0.224 µM |
